Conditions: Liquid, Vibrating tube method

CC(C)CO [2-methyl-1-propanol]
Conditions	mass density [kg/m3]
343.15 K, 50016 kPa	802.401
343.15 K, 52079 kPa	803.724
343.15 K, 54997 kPa	805.581
343.15 K, 57987 kPa	807.46
343.15 K, 62074 kPa	809.959
343.15 K, 65051 kPa	811.734
343.15 K, 66170 kPa	812.401
343.16 K, 60015 kPa	808.691
348.15 K, 94 kPa	756.672
348.15 K, 293.8 kPa	756.914
348.15 K, 481.9 kPa	757.128
348.15 K, 763.5 kPa	757.435
348.15 K, 1011 kPa	757.701
348.15 K, 1981.1 kPa	758.826
348.15 K, 3073.2 kPa	759.88
348.15 K, 5089.9 kPa	762.131
348.15 K, 7034.6 kPa	764.092
348.15 K, 9052.5 kPa	766.106
348.15 K, 9991.3 kPa	767.026
348.15 K, 15042 kPa	771.822
348.15 K, 17922 kPa	774.408
348.15 K, 19893 kPa	776.137
348.15 K, 22033 kPa	777.985
348.15 K, 22381 kPa	778.265
348.15 K, 28023 kPa	782.927
348.15 K, 29922 kPa	784.471
348.15 K, 33999 kPa	787.493
348.15 K, 34980 kPa	788.228
348.15 K, 37995 kPa	790.467
348.15 K, 40072 kPa	791.973
348.15 K, 41992 kPa	793.388
348.15 K, 45082 kPa	795.525
348.15 K, 48031 kPa	797.589
348.15 K, 52067 kPa	800.261
348.15 K, 55099 kPa	802.242
348.15 K, 60084 kPa	805.42
348.15 K, 62302 kPa	806.758
348.15 K, 65219 kPa	808.569
348.15 K, 66250 kPa	809.201
348.16 K, 12060 kPa	769.03
348.16 K, 25066 kPa	780.513
348.16 K, 32007 kPa	786.046
348.16 K, 32760 kPa	786.619
348.16 K, 32941 kPa	786.66
348.16 K, 50014 kPa	798.878
348.16 K, 58146 kPa	804.186
353.15 K, 98.1 kPa	752.221
353.15 K, 305.8 kPa	752.433
353.15 K, 384 kPa	752.511
353.15 K, 558.5 kPa	752.696
353.15 K, 929.4 kPa	753.125
353.15 K, 1073.7 kPa	753.289
353.15 K, 2082.7 kPa	754.432
353.15 K, 3025.9 kPa	755.465
353.15 K, 5017.9 kPa	757.656
353.15 K, 6957.8 kPa	759.69
353.15 K, 8976.6 kPa	761.781
353.15 K, 9990.3 kPa	762.812
353.15 K, 11934 kPa	764.803
353.15 K, 14917 kPa	767.603
353.15 K, 18020 kPa	770.471
353.15 K, 19983 kPa	772.259
353.15 K, 22060 kPa	773.965
353.15 K, 24899 kPa	776.429
353.15 K, 27951 kPa	778.961
353.15 K, 29947 kPa	780.584
353.15 K, 31942 kPa	782.185
353.15 K, 32982 kPa	782.978
353.15 K, 33037 kPa	783.002
353.15 K, 33907 kPa	783.604
353.15 K, 35053 kPa	784.493
353.15 K, 37939 kPa	786.664
353.15 K, 39830 kPa	788.076
353.15 K, 41863 kPa	789.556
353.15 K, 44753 kPa	791.642
353.15 K, 47880 kPa	793.816
353.15 K, 49780 kPa	795.14
353.15 K, 51876 kPa	796.535
353.15 K, 55023 kPa	798.765
353.15 K, 55678 kPa	799.178
353.15 K, 57869 kPa	800.594
353.15 K, 59971 kPa	801.962
353.15 K, 62015 kPa	803.245
353.15 K, 64989 kPa	805.09
353.15 K, 66151 kPa	805.82
358.15 K, 91.6 kPa	747.694
358.15 K, 304.9 kPa	747.895
358.15 K, 517.3 kPa	748.147
358.15 K, 850.1 kPa	748.568
358.15 K, 1095.5 kPa	748.835
358.15 K, 2101.6 kPa	750.029
358.15 K, 3210.6 kPa	751.303
358.15 K, 5324.2 kPa	753.465
358.15 K, 7190.1 kPa	755.483
358.15 K, 9074.3 kPa	757.505
358.15 K, 10165 kPa	758.644
358.15 K, 12208 kPa	760.738
358.15 K, 13986 kPa	762.552
358.15 K, 15000 kPa	763.577
358.15 K, 17866 kPa	766.293
358.15 K, 20104 kPa	768.379
358.15 K, 27962 kPa	775.177
358.15 K, 30131 kPa	776.699
358.15 K, 32076 kPa	778.299
358.15 K, 32938 kPa	778.904
358.15 K, 33039 kPa	779.08
358.15 K, 33914 kPa	779.672
358.15 K, 34978 kPa	780.53
358.15 K, 37986 kPa	782.876
358.15 K, 39996 kPa	784.402
358.15 K, 42079 kPa	785.976
358.15 K, 45119 kPa	788.207
358.15 K, 48100 kPa	790.343
358.15 K, 49987 kPa	791.672
358.15 K, 52101 kPa	793.112
358.15 K, 54983 kPa	795.084
358.15 K, 58017 kPa	797.106
358.15 K, 60055 kPa	798.438
358.15 K, 62083 kPa	799.766
358.15 K, 65016 kPa	801.626
358.15 K, 66339 kPa	802.467
358.16 K, 22005 kPa	770.073
358.16 K, 25079 kPa	772.781
363.15 K, 53.2 kPa	742.307
363.15 K, 125.5 kPa	742.405
363.15 K, 320.3 kPa	742.647
363.15 K, 562.5 kPa	742.935
363.15 K, 892.5 kPa	743.339
363.15 K, 1001.3 kPa	743.446
363.15 K, 1911.6 kPa	744.576
363.15 K, 2977.3 kPa	745.832
363.15 K, 4957.5 kPa	748.169
363.15 K, 6937.4 kPa	750.436
363.15 K, 8892.9 kPa	752.564
363.15 K, 10033 kPa	753.801
363.15 K, 11914 kPa	755.769
363.15 K, 14908 kPa	758.826
363.15 K, 17925 kPa	761.773
363.15 K, 19995 kPa	763.754
363.15 K, 21953 kPa	765.578
363.15 K, 24962 kPa	768.273
363.15 K, 27932 kPa	770.858
363.15 K, 30163 kPa	772.879
363.15 K, 32029 kPa	774.439
363.15 K, 33151 kPa	775.369
363.15 K, 33315 kPa	775.421
363.15 K, 34086 kPa	776.049
363.15 K, 35189 kPa	776.934
363.15 K, 37932 kPa	779.076
363.15 K, 40070 kPa	780.754
363.15 K, 41883 kPa	782.107
363.15 K, 44755 kPa	784.308
363.15 K, 48054 kPa	786.713
363.15 K, 50037 kPa	788.134
363.15 K, 51977 kPa	789.492
363.15 K, 55048 kPa	791.627
363.15 K, 57990 kPa	793.615
363.15 K, 60071 kPa	794.972
363.15 K, 62073 kPa	796.302
363.15 K, 64996 kPa	798.178
363.15 K, 66050 kPa	798.847
